Measurements reported in patent US6344457B1, “Amino acid derivatives inhibiting extracellular matrix metalloproteinase and TNF alpha release” (Chiesi Farmaceutici S.p.A., priority 1997, dated 2002).
Where two headings read alike, the source gives them in different places. Values belong to the molecule of their own block, whether it stands above or below them.

How the values were obtained:
[1] = Determination of bioavailability (blood levels, ex-vivo bioassay); type: in vivo; conditions: mice
Experimental: The compounds of this invention were administered i.p. or p.o. between 1 and 50 mg/kg to mice: the blood levels then were determined by an ex-vivo bioassay according to Wang X. et al. (Cancer Res., 54, 4726-4728, 1994). The introduction of an OH group systematically increases the bioavailability of the products.

[2] = system: release of TNF from the peritoneal macrophages of mice stimulated by LPS; assay: Inhibition of the production of TNF in vitro; type: cell-based; conditions: Peritoneal macrophage; mouse peritoneal macrophages, LPS 100 ng/ml; read-out: C150 (μM) TNF
Experimental: The capacity of the compounds according to this invention to inhibit the release of TNF was determined from the peritoneal macrophages of mice stimulated by LPS (Lang, F., Robert, […], Petit, J. Y., J. Pharmacol. Exp. Ther., 275, 171-176, 1995). After an adhesion phase of 2 hours, the cells were treated for 1 hour with the compound to be tested at concentrations ranging between 10^-6 to 10^-9 M (the inhibitor is dissolved in DMSO at 10^-2 M, then at 5.10^-3 M in RPMI 1640 with 5% SVF, then diluted successively by tenths in the same medium), then stimulated by the addition of LPS (100 ng/ml in final concentration). Three hours later, the biological activity of the TNF in the supernatants was determined by a cytotoxicity test using the murine stock L929 in accordance with the operating procedure described by Band, G., Lin, […]., Evans, C. H. (Bioch. Biophys. Acta, 1134, 309-318, 1982). The pg/ml concentration of the TNF of the samples was determined from a murine αTNF standard curve, thus making it possible to define the inhibiting concentration […] of the compounds studied.

[3] = target: T1, collagenase of the human monocytic stock U937 (Homo sapiens, UniProt P03956); assay: Activity on collagenase; type: biochemical; conditions: radiomarked collagen, 27° C., 16 hours; read-out: C150 (nM) collagenase
T1 construct: the collagenase of the human monocytic stock U937; endogenous in cells; host or cells: U937 human monocytic cell line
T1 sequence (P03956 100-469): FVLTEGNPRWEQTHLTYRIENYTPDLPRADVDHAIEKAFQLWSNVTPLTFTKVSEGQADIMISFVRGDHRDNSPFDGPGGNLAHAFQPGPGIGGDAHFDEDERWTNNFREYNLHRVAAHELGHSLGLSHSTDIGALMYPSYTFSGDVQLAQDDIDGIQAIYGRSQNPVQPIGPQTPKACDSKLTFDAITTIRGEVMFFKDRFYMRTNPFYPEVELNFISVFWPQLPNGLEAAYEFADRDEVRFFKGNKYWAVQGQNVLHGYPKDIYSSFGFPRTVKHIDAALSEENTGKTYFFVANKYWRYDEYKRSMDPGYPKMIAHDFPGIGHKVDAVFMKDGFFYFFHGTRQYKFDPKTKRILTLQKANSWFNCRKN
Experimental: The collagenase was incubated at 27° C. for 16 hours with radiomarked collagen, and its activity was determined by the release of soluble peptides produced by the enzymatic breakdown of the collagen. The inhibiting concentration C150 for each compound was determined by measurement of the activity of the enzyme in the presence of the inhibitor at a concentration ranging between 10^−7 and 10^−12 M (the inhibitor is dissolved at a concentration of 10^−2 M in DMSO, then diluted successively by tenths in the buffer: Tris, HCl 150 mM, pH 7.5; NaCl 0.15 M; CaCl2 10 mM).

[4] = target: 92 kDa gelatinase of human origin (Homo sapiens, UniProt P14780); assay: Activity on gelatinase, radiomarked gelatin; type: biochemical; conditions: test performed with radiomarked gelatin; read-out: C150 (nM) gelatinase 92 kDa*
Experimental: The anti-gelatinase activity of the compounds according to the invention also was determined on 92 kDa or 72 kDa gelatinase of human origin, in accordance with the operating mode described by Harris, E. D., Krane, S. M.; (Biochem. Biophys. Acta, 258, 566-576, 1972).
The gelatinase was incubated at 37° C. for 16 hours with radiomarked gelatin, and its activity was determined by the release of the soluble peptides produced by the enzymatic breakdown of the gelatin. The inhibiting concentration C150 for each compound was determined by measurement of the activity of the enzyme in the presence of the inhibitor at a concentration ranging between 10^−7 and 10^−12 M (the inhibitor is dissolved in the same manner as for collagenase).

[5] = mouse, blood, po, 50 mg/kg, 50 mg/kg p.o., read-out: blood level, P.o. method, 10′
[6] = mouse, blood, po, 50 mg/kg, 50 mg/kg p.o., read-out: blood level, P.o. method, 20′
[7] = mouse, blood, po, 50 mg/kg, 50 mg/kg p.o., read-out: blood level, P.o. method, 40′
[8] = mouse, blood, ip, 50 mg/kg, 50 mg/kg i.p., read-out: blood level, I.p. method, 10′
[9] = mouse, blood, ip, 50 mg/kg, 50 mg/kg i.p., read-out: blood level, I.p. method, 20′
[10] = mouse, blood, ip, 50 mg/kg, 50 mg/kg i.p., read-out: blood level, I.p. method, 40′
[11] = mouse, blood, po, 50 mg/kg, 50 mg/kg p.o., read-out: blood level, P.o. method, 1 h
[12] = mouse, blood, po, 50 mg/kg, 50 mg/kg p.o., read-out: blood level, P.o. method, 24 h
[13] = mouse, blood, ip, 50 mg/kg, 50 mg/kg i.p., read-out: blood level, I.p. method, 1 h
[14] = mouse, blood, ip, 50 mg/kg, 50 mg/kg i.p., read-out: blood level, I.p. method, 24 h

Sequence of 92 kDa gelatinase of human origin (P14780 94-707): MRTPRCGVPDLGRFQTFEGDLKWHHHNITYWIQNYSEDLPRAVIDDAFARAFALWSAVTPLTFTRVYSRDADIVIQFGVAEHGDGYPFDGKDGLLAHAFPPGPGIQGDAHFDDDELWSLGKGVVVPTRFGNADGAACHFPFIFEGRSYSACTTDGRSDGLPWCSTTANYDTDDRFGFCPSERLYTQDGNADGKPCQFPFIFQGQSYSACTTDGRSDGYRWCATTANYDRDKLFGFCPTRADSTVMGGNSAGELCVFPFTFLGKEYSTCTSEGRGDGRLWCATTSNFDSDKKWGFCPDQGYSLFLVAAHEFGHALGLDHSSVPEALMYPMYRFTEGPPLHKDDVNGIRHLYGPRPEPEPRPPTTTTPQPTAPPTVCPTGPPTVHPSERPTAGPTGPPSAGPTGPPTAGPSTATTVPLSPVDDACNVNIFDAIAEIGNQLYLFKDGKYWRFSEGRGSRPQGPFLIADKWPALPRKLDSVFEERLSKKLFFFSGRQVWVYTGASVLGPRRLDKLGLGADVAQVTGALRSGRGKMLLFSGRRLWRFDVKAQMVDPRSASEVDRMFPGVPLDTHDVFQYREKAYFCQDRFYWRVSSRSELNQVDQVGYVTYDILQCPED

concentration at 10 min [1, 5]: 600 ng/mL
concentration at 20 min [1, 6]: 300 ng/mL
concentration at 40 min [1, 7]: 600 ng/mL
Molecule: CNC(=O)C(Cc1ccc(Cl)c(Cl)c1)NC(=O)[C@](O)(CC(C)C)[C@H](C)C(=O)NO (some centres unmarked)

concentration at 10 min [1, 8]: 20000 ng/mL
concentration at 20 min [1, 9]: 9000 ng/mL
concentration at 40 min [1, 10]: 47000 ng/mL
concentration at 10 min [1, 5]: 2200 ng/mL
concentration at 20 min [1, 6]: 4300 ng/mL
concentration at 30 min ([1]; mouse, blood, po, 50 mg/kg, 50 mg/kg p.o., 30′, read-out: blood level, P.o. method, 30′): 300 ng/mL
concentration at 1 h [1, 11]: 500 ng/mL
concentration at 24 h [1, 12]: 170 ng/mL
Molecule: CNC(=O)[C@@H](NC(=O)[C@H](CC(C)C)[C@H](O)C(=O)NO)C(C)C

concentration at 10 min [1, 8]: 20000 ng/mL
concentration at 20 min [1, 9]: 0 ng/mL
concentration at 40 min [1, 10]: 4000 ng/mL
concentration at 10 min [1, 5]: 10000 ng/mL
concentration at 20 min [1, 6]: 9000 ng/mL
concentration at 1 h [1, 11]: 9000 ng/mL
concentration at 24 h [1, 12]: 9000 ng/mL
Molecule: CNC(=O)[C@H](Cc1ccc(OC)cc1)NC(=O)C(O)(CC(C)C)[C@H](O)C(=O)NO (some centres unmarked)

concentration at 10 min [1, 8]: 56000 ng/mL
concentration at 20 min [1, 9]: 22000 ng/mL
concentration at 1 h [1, 13]: 3500 ng/mL
Molecule: CNC(=O)[C@@H](NC(=O)C(O)(CC(C)C)[C@H](C)C(=O)NO)C(C)(C)C (some centres unmarked)

IC50 [2]: 3.2 µM
IC50 [3]: 130 nM
IC50 [4]: 17 nM
Molecule: CNC(=O)[C@H](Cc1ccc(OC)cc1)NC(=O)[C@](O)(CC(C)C)C(C)N(O)C=O (mixture of isomers) [Example 38, N-2(S)-[1(N-hydroxy-N-formyl)ethyl]2(S)-hydroxy4-methylpentanoyl-o-methyl L-tyrosine methylamide]

IC50 [2]: 1.6 µM
Molecule: CC(C)C[C@@](O)(C(=O)NC(Cc1ccc(Cl)cc1)C(=O)NCCN1CCOCC1)C(C)C(=O)NO (some centres unmarked) [Example 12b]

IC50 [3]: 22 nM
IC50 [4]: 8 nM
Molecule: CC(C)C[C@@](O)(C(=O)NC(Cc1ccc(Cl)cc1)C(=O)NCCN1CCOCC1)[C@H](C)C(=O)NO (some centres unmarked) [Example 12b]

IC50 [2]: 0.13 µM
IC50 [3]: 2.4 nM
Molecule: CNC(=O)[C@H](Cc1cccc(Cl)c1)NC(=O)[C@](O)(CC(C)C)[C@H](C)C(=O)NO [Example 22, N-2(S)-[1(S) hydroxycarbamoyl-1 ethyl]-2(S) hydroxy-4-methylpentanoyl L-3-chlorophenylalanine N-methylamide]

IC50 [2]: 4.4 µM
IC50 [4]: 0.6 nM
Molecule: CNC(=O)[C@H](Cc1c[nH]c2ccccc12)NC(=O)[C@](O)(CC(C)C)[C@H](C)C(=O)NO [Example 26, N-2-(S)[1(S) hydroxycarbamoyl-1 ethyl]-2(S)hydroxy-4-methylpentanoyl L-tryptophan N-methylamide]

IC50 [4]: 1.7 nM
Molecule: CC(C)C[C@@](O)(C(=O)N[C@@H](Cc1ccc(Cl)cc1)C(=O)NCCC#N)[C@H](C)C(=O)NO [Example 27, N-2(S)[1(S) hydroxycarbamoyl-1 ethyl]-2(S)hydroxy-4-methylpentanoyl L-4-chlorophenylalanine N-(2-cyano-1-ethyl) amide]

IC50 [3]: 26 nM
IC50 [4]: 1.6 nM
Molecule: CC(C)C[C@@](O)(C(=O)N[C@@H](Cc1ccc(Cl)cc1)C(=O)NCC/C(N)=N/O)[C@H](C)C(=O)NO [Example 28, N-2(S)[1(S) hydroxycarbamoyl-1 ethyl]-2(S)hydroxy-4-methylpentanoyl L-4-chlorophenylalanine N-oximino-2-amino-2-ethylamide]

concentration at 10 min [1, 8]: 200 ng/mL
concentration at 20 min [1, 9]: < 100 ng/mL
concentration at 40 min [1, 10]: < 100 ng/mL
concentration at 10 min [1, 5]: < 100 ng/mL
concentration at 20 min [1, 6]: < 100 ng/mL
concentration at 40 min [1, 7]: < 100 ng/mL
Molecule: CNC(=O)[C@H](Cc1ccc(OC)cc1)NC(=O)[C@H](CC(C)C)[C@H](C)C(=O)NO [drawing 113]

concentration at 10 min [1, 8]: 23000 ng/mL
concentration at 20 min [1, 9]: 8700 ng/mL
concentration at 1 h [1, 13]: 770 ng/mL
concentration at 24 h [1, 14]: < 500 ng/mL
concentration at 10 min [1, 5]: 4200 ng/mL
concentration at 20 min [1, 6]: 2100 ng/mL
concentration at 1 h [1, 11]: 580 ng/mL
concentration at 24 h [1, 12]: < 500 ng/mL
Molecule: CNC(=O)[C@H](Cc1ccc(OC)cc1)NC(=O)[C@](O)(CC(C)C)[C@H](C)C(=O)NO [drawing 114]

blood level, I.p. method, 10′ ([1]; 50 mg/kg i.p.): 30 µg/mL
blood level, I.p. method, 20′ ([1]; 50 mg/kg i.p.): 27 µg/mL
blood level, P.o. method, 10′ ([1]; 50 mg/kg p.o.): 2.3 µg/mL
blood level, P.o. method, 20′ ([1]; 50 mg/kg p.o.): 1.2 µg/mL
blood level, P.o. method, 24 h ([1]; 50 mg/kg p.o.): 0.9 µg/mL
concentration at 40 min [1, 10]: 18000 ng/mL
Molecule: CC(C)C[C@@](O)(C(=O)N[C@@H](Cc1ccc(Cl)cc1)C(=O)NCCN1CCOCC1)[C@H](C)C(=O)NO [drawing 115]

blood level, I.p. method, 10′ ([1]; 50 mg/kg i.p.): 87 µg/mL
blood level, I.p. method, 20′ ([1]; 50 mg/kg i.p.): 13 µg/mL
blood level, P.o. method, 10′ ([1]; 50 mg/kg p.o.): 5.1 µg/mL
blood level, P.o. method, 20′ ([1]; 50 mg/kg p.o.): 3.1 µg/mL
blood level, P.o. method, 24 h ([1]; 50 mg/kg p.o.): <0.3 µg/mL
concentration at 1 h [1, 13]: 1700 ng/mL
concentration at 24 h [1, 14]: 300 ng/mL
concentration at 1 h [1, 11]: 400 ng/mL
Molecule: CC(C)C[C@@](O)(C(=O)N[C@@H](Cc1ccc(Cl)cc1)C(=O)NCCN1CCOCC1)[C@H](C)C(=O)NO [drawing 116]

blood level, I.p. method, 10′ ([1]; 50 mg/kg i.p.): 0.7 µg/mL
blood level, I.p. method, 20′ ([1]; 50 mg/kg i.p.): 0.5 µg/mL
blood level, I.p. method, 40′ ([1]; 50 mg/kg i.p.): 0.1 µg/mL
blood level, P.o. method, 10′ ([1]; 50 mg/kg p.o.): 0.1 µg/mL
blood level, P.o. method, 20′ ([1]; 50 mg/kg p.o.): 0.1 µg/mL
Molecule: CC(C)C[C@@](O)(C(=O)N[C@@H](Cc1ccc(Cl)c(Cl)c1)C(=O)NCCN1CCOCC1)[C@H](C)C(=O)NO [drawing 118]

blood level, I.p. method, 10′ ([1]; 50 mg/kg i.p.): 6 µg/mL
blood level, I.p. method, 20′ ([1]; 50 mg/kg i.p.): 5 µg/mL
blood level, I.p. method, 40′ ([1]; 50 mg/kg i.p.): 1.8 µg/mL
blood level, P.o. method, 10′ ([1]; 50 mg/kg p.o.): 1.25 µg/mL
blood level, P.o. method, 20′ ([1]; 50 mg/kg p.o.): 0.8 µg/mL
concentration at 1 h [1, 11]: 450 ng/mL
Molecule: CC(C)C[C@@](O)(C(=O)N[C@@H](Cc1ccc(Cl)c(Cl)c1)C(=O)NCCN1CCOCC1)[C@H](C)C(=O)NO [drawing 119]

concentration at 10 min [1, 8]: 4500 ng/mL
concentration at 20 min [1, 9]: 7800 ng/mL
concentration at 40 min [1, 10]: 4400 ng/mL
concentration at 10 min [1, 5]: 100 ng/mL
concentration at 20 min [1, 6]: 100 ng/mL
Molecule: CC(C)C[C@@](O)(C(=O)N[C@@H](Cc1ccc(Cl)c(Cl)c1)C(=O)NCCOCCO)[C@H](C)C(=O)NO [drawing 120]

IC50 [2]: 0.14 µM
Molecule: CNC(=O)[C@@H](NC(=O)[C@H](CC(C)C)[C@H](O)C(=O)NO)C(C)(C)C [reference compound]

IC50 [4]: 34 nM
Molecule: N-2-(S)[(S)-hydroxy-(S)hydroxycarbamoylmethyl)-2(S)-hydroxy-4-methyl]pentanoyl-o-methyl-3-methyl-(S) valine N-methylamide [Example 34]
